Patent US20260101897A1, “PLANT ENVIRONMENTAL STRESS TOLERANCE IMPROVEMENT AGENT AND ENVIRONMENTAL STRESS TOLERANCE IMPROVEMENT METHOD” (priority 2022, published 2026)

Columns and labels:
Assay type in all cases: in vivo
[1] = system: Arabidopsis thaliana (Col-0); experiment: Evaluation Example 4: tolerance to high temperature stress, plant mortality; details: for Environmental stress suppressing rate: high temperature stress Yes
Method: EGT (Example 5 and Comparative Example 13) or GB (Comparative Example 12 and Comparative Example 14) was prepared so as to have a concentration shown in Table 4 below. EGT and GB were commercially available products, and pure water was used as a solvent.
In a plastic pot having a diameter of 60 mm and a height of 55 mm, 80 mL of culture soil (manufactured by Hanagokoro Co., Ltd.) was put, and one individual Arabidopsis thaliana (Col-0) was seeded per pot. Plastic deep dishes each having a diameter of 160 mm and a height of 28 mm were prepared, and four pots were respectively placed therein.
They were located in a growth chamber set at room temperature of 22° C., and the light period was 16 hours and the dark period was 8 hours. The light conditions were set such that the light intensity was 5000 lx in the central part under irradiation with the fluorescent lamp. Water supply was conducted from the bottom, and the water level was set at about 5 mm. On the 41st day after seeding, 50 mL of EGT or 50 mL of GB was added, and one day after that, high temperature stress was applied by exposure to an environment of 42° C. for 3 hours.
The surviving plants were counted 12 days after the high temperature stress was applied, and the plant mortality rate was evaluated as an index of physiological disorder. The mortality rate and the environmental stress suppressing rate were calculated according to the following formulas.

[2] = system: arugula; experiment: Evaluation Example 15: tolerance to low temperature stress, leaf wilting; details: for Environmental stress suppressing rate: low temperature stress Yes
Method: EGT (Examples 19 and 20, Comparative Examples 66 and 67) or GB (Comparative Example 64, 65, 68 and 69) was prepared so as to have a concentration shown in Table 15 below. EGT and GB were commercially available products, and pure water was used as a solvent.
(§1) 1 mL of pure water was added to 3.5-cm petri dishes on which filter paper was placed, and 5 arugula seeds were seeded per petri dish. They were located in a growth chamber set at room temperature of 22° C., and the light period was 16 hours and the dark period was 8 hours. The light conditions were set such that the light intensity was 5000 lx in the central part under irradiation with the fluorescent lamp.
On the 4th day after seeding, pure water in the petri dish was removed, and then 1 mL of EGT or 1 mL of GB was added, and 24 hours after that, low temperature stress was applied by exposure to an environment of 4° C. for 48 hours.
The number of wilted arugula leaves was evaluated 3 days after the low temperature stress was applied. The leaf wilting rate and the environmental stress suppressing rate were calculated according to the following formulas.

[3] = system: cotton; experiment: Evaluation Example 3: tolerance to drying stress, leaf necrotizing; details: for Leaf necrotizing rate: test compound 0.1 mM (50 mL), 4 days after stoppage of water; for Leaf necrotizing rate / Environmental stress suppressing rate: drying stress Yes; for Environmental stress suppressing rate: test compound 0.1 mM
Method: EGT and GB were commercially available products, and pure water was used as a solvent.
In a plastic pot having a diameter of 60 mm and a height of 55 mm, 90 mL of granular soil (Kumiai horticultural soil) was placed, and one individual cotton (manufactured by TOHOKU SEED CO., LTD.) was seeded per pot.
They were managed in a greenhouse set at room temperature of 25° C. EGT in an amount of 50 mL or GB in an amount of 50 mL was added on the 23rd day after seeding, and drying stress was applied by stopping water supply for 4 days after 4 days from the addition of EGT or GB.
The leaves were collected 4 days after the stoppage of water and photographed with a digital camera. The photographed pictures of the leaves were analyzed with image analysis software WinROOF (manufactured by MITANI Corporation) to quantify the total leaf area and the green leaf area.
Using the above-described total leaf area and green leaf area, the leaf necrotizing rate after 4 days from the stoppage of water was evaluated. The leaf necrotizing rate and the environmental stress suppressing rate were calculated according to the following formulas.

[4] = system: strawberry (wild strawberry); experiment: Evaluation Example 14: tolerance to freezing stress, plant mortality; details: for Environmental stress suppressing rate: freezing stress Yes
Method: EGT (Example 18, Comparative Example 60) or GB (Comparative Examples 59 and 61) was prepared so as to have the concentration shown in Table 14 below. EGT and GB were commercially available products, and pure water was used as a solvent.
as §1, with “5 mL” for “1 mL”, “to 9-cm” for “to 3.5-cm”, “and 10” for “and 5 arugula”, “seeds of strawberry (wild strawberry)” for “seeds”, “per” for “per petri”
On the 15th day after seeding, pure water in the petri dish was removed, and then 5 mL of EGT or 5 mL of GB was added, and 9 days after that, freezing stress was applied by exposure to an environment of −20° C. for 20 minutes.
The surviving plants were counted 3 days after the freezing stress was applied, and the mortality rate of the plants was evaluated as an index of physiological disorder. The mortality rate and the environmental stress suppressing rate were calculated according to the following formulas.

[5] = system: broccoli; experiment: Evaluation Example 13: tolerance to freezing stress, plant mortality; details: for Environmental stress suppressing rate: freezing stress Yes
Method: EGT (Example 17, Comparative Example 55) or GB (Comparative Examples 54 and 56) was prepared so as to have the concentration shown in Table 13 below. EGT and GB were commercially available products, and pure water was used as a solvent.
as §1, with “5 mL” for “1 mL”, “to 9-cm” for “to 3.5-cm”, “and 10 broccoli” for “and 5 arugula”
On the 6th day after seeding, pure water in the petri dish was removed, and then, 5 mL of EGT or 5 mL of GB was added to the petri dish, and freezing stress was applied by, 14 days after the addition, a first exposure to an environment of −20° C. for 20 minutes, and, 1 day after the first exposure, a second exposure to an environment of −20° C. for 20 minutes.
The surviving plants were counted 24 hours after the freezing stress was applied, and the mortality rate of the plants was evaluated as an index of physiological disorder. The mortality rate and the environmental stress suppressing rate were calculated according to the following formulas.

[6] = test compound 0.5 mM (50 mL), high temperature stress Yes (42° C. for 3 hours), 12 days after stress
[7] = test compound 0.5 mM, high temperature stress No
[8] = test compound 0.1 mM (1 mL), low temperature stress Yes (4° C. for 48 hours), 3 days after stress
[9] = test compound 0.1 mM, low temperature stress No
[10] = test compound 1 mM (1 mL), low temperature stress Yes (4° C. for 48 hours), 3 days after stress
[11] = test compound 1 mM, low temperature stress No
[12] = test compound 0.1 mM (5 mL), freezing stress Yes (−20° C. for 20 minutes), 3 days after stress
[13] = test compound 0.1 mM, freezing stress No
[14] = test compound 0.1 mM (5 mL), freezing stress Yes (−20° C. for 20 minutes, twice), 24 hours after stress

Structure (SMILES)	Mortality rate [1, 6]	Mortality rate [1, 7]	Environmental stress suppressing rate ([1]; test compound 0.5 mM)	Leaf wilting rate [2, 8]	Leaf wilting rate [2, 9]	Environmental stress suppressing rate ([2]; test compound 0.1 mM)	Leaf wilting rate [2, 10]	Leaf wilting rate [2, 11]	Environmental stress suppressing rate ([2]; test compound 1 mM)	Leaf necrotizing rate [3]	Environmental stress suppressing rate [3]	Mortality rate [4, 12]	Mortality rate [4, 13]	Environmental stress suppressing rate ([4]; test compound 0.1 mM)	Mortality rate [5, 14]	Mortality rate [5, 13]	Environmental stress suppressing rate ([5]; test compound 0.1 mM)	also measured
C[N+](C)(C)[C@@H](Cc1c[nH]c(=S)[nH]1)C(=O)[O-] [EGT, L-(+)-ergothioneine]	25%	0%	67%	0%	0%	100%	0%	0%	100%	26%	50%	29%	0%	54%	38%	0%	56%	–
C[N+](C)(C)CC(=O)[O-] [GB, glycine betaine, reference compound]	75%	0%	0%	60%	0%	10%	60%	0%	10%	68%	0%	63%	0%	0%	100%	0%	0%	mortality rate due to high temperature stress, result in words ([1]; 0.5 mM, high temperature stress): not suppressed; leaf wilting rate due to low temperature stress, result in words ([2]; GB 1 mM and 0.1 mM, low temperature stress): hardly suppressed; necrotizing due to drying stress, result in words ([3]; 0.1 mM, drying stress): not suppressed; mortality rate due to freezing stress, result in words ([4]; 0.1 mM, freezing stress): not suppressed; mortality rate due to freezing stress, result in words ([5]; 0.1 mM, freezing stress): not suppressed
